Source: US9284567B2, “Method for gene introduction into hordeum plant using agrobacterium, and method for production of transformed plant of hordeum plant” (JAPAN TOBACCO INC., priority 2010, dated 2016)

Legend:
[1] = tested on: scutellum of barley immature embryo; experiment: Gene introduction efficiency (GUS expression index) after coculture with Agrobacterium; type: cell-based, barley (variety: Golden Promise)
Protocol: Immature embryos (size: 1.5 to 2.0 mm) of barley (variety: Golden Promise) from which embryonic axes were removed were aseptically collected and were immersed in 1 mL of sterilized water in a 2-mL microtube. In order to enhance the gene introduction efficiency, the tube containing the immature embryos was heated in a water bath at 43° C. for 5 minutes. An Agrobacterium strain EHA101 having a hygromycin resistance gene (pIG121Hm) (Non-Patent Literature 2) was suspended in an MG/L liquid medium (Non-Patent Literature 28) containing 100 μM acetosyringone and was shake-cultured (180 rpm) at 28° C. overnight (about 20 hours) to prepare an inoculation source. The bacterial concentration was adjusted to an O.D. of 1.0 (660 nm). The inoculation source was added to the thermal-treated immature embryos, and a reduced pressure treatment was performed with a vacuum pump at 500 mbar for 10 minutes. The immature embryos were washed once with a callus induction liquid medium, CIMT (Tingay et al., 1997: Non-Patent Literature 5) not containing any plant growth regulator (hereinafter, antiauxins, cytokinins, and auxins are collectively referred to as plant growth regulators). The immature embryos inoculated with Agrobacterium were transplanted onto a barley coculture medium (1/10 diluted MS inorganic salts and MS vitamins, 10 g/L of glucose, 0.5 g/L of MES, 5 μM AgNO3, and 5 μM CuSO4, pH 5.8; and 8 g/L of agarose) containing 100 μM acetosyringone in such a manner that the scutellum side faces upward. The test was performed using two plant growth regulators in four test groups of the coculture medium. That is, the four test groups are a hormone-free test group not containing any plant growth regulator, a test group of 5 μM TIBA (antiauxin), a test group of 1.13 μM dicamba (auxin), and a test group of 11.3 μM dicamba (auxin).
Immature embryos cultured at 25° C. in the dark for 24 hours were transplanted in a CIMT resting medium (Tingay et al., 1997: Non-Patent Literature 5) containing 0.5 mg/L of 2,4-D and 1.25 mg/L of CuSO4.5H2O. The resting medium was added with 250 mg/L of carbenicillin and 100 mg/T, of cefotaxime for Agrobacterium eradication. […] The expression of the GUS gene in the scutellum region of each immature embryo was evaluated in seven grades: 87.5 (expressed in 75% or more of scutellum), 62.5 (expressed in 50% or more and less than 75% of scutellum), 37.5 (expressed in 25% or more and less than 50% of scutellum), 17.5 (expressed in 10% or more and less than 25% of scutellum), […] (expressed in 1% or more and less than 10% of scutellum), 0.5 (expressed in exceeding 0% and less than 1% of scutellum), and 0 (no expression), and the average value thereof was expressed by a numerical value as the GUS expression index. […]

barley immature embryos [2] = experiment: Callus formation from cocultured immature embryos; type: cell-based; details: 0.25 mg/L (1.13 μM) in 1/10 diluted MS coculture medium, no centrifugation or pressurization
barley immature embryos [3] = experiment: Hygromycin resistance callus formation after secondary selection; type: cell-based, barley (variety: Golden Promise); details: Example 4, 5 μM TIBA in coculture medium
Protocol: The materials, the method of inoculation with Agrobacterium, the thermal treatment conditions, the coculture step, the centrifugation treatment conditions, and the resting step were the same as those in Example 3. The coculture medium contained an antiauxin: 5 μM TIBA. The scutellum was divided into four sections, and the resting step was further continued for 10 days. After the resting step, each divided scutellum section was further divided into 4 subsections (i.e., one immature embryo was divided into 16 sections). The divided subsections were transplanted in a CIMT selection medium (Tingay et al., 1997: Non-Patent Literature 5) containing 50 mg/L of hygromycin B and 1.25 mg/L of CuSO4.5H2O. The selection medium was added with 250 mg/L of carbenicillin for Agrobacterium eradication. Scutellum subsections were sorted by the original immature embryo and placed on the medium. After the culture at 25° C. in the dark for 2 weeks, only compact calli were selected by removing sponge-like calli containing a large amount of moisture. […] After the culture, hygromycin resistance compact calli propagated on the selection medium were counted. Note that even when a plurality of resistance calli were formed from scutellum subsections derived from a single immature embryo, only one of the resistance calli was counted as a hygromycin resistance callus for each immature embryo.

barley immature embryos [4] = experiment: Transformation efficiency per immature embryo (hygromycin-resistant and GUS-positive regenerated plants); type: cell-based, barley (variety: Golden Promise)
Protocol: The preparation of materials and the inoculation with Agrobacterium were performed as in Example 1. The thermal treatment was also similarly performed.
Test group (1): Immature embryos inoculated with Agrobacterium were placed on the coculture medium described in Harwood et al. (2008: Non-Patent Literature 11) in such a manner that the scutellum faces downward. The coculture was performed at 25° C. in the dark for 3 days. In this test group, the centrifugation treatment was not performed.
Test group (2): Isolated immature embryos were transferred in a 2-mL microtube containing 1 mL of sterilized water and were centrifuged at 25° C. at 15000 rpm (20000×g) for 10 minutes. Subsequently, coculture was performed as in test group (1).
Test group (3): Immature embryos cocultured as in test group (1) were transferred in a 2-mL microtube containing 1 mL of sterilized water and were centrifuged at 25° C. at 15000 rpm (20000×g) for 10 minutes.
Test group (4): Immature embryos inoculated with Agrobacterium were transferred onto a barley coculture medium (1/10 diluted MS inorganic salts and MS vitamins, 10 g/L of glucose, 5 μM TIBA, 0.5 g/L of MES, 5 μM AgNO3, and 5 μM CuSO4, pH 5.8; and 8 g/L of agarose) containing 100 μM acetosyringone in such a manner that the scutellum side faces upward. The immature embryos were cultured at 25° C. in the dark for 24 hours. In this test group, the centrifugation treatment was not performed.
Test group (5): Isolated immature embryos were transferred in a 2-mL microtube containing 1 mL of sterilized water and were centrifuged at 25° C. at 15000 rpm (20000×g) for 10 minutes. Subsequently, coculture was performed as in test group (4).
Test group (6): Immature embryos cocultured as in test group (4) were transferred in a 2-mL microtube containing 1 mL of sterilized water and were centrifuged at 25° C. at 15000 rpm (20000×g) for 10 minutes.
That is, test groups (1), (2), and (3) used a coculture medium containing an auxin, dicamba, and undiluted MS inorganic salts, whereas test groups (4), (5), and (6) used a coculture medium containing an antiauxin, TIBA, and 1/10 diluted MS inorganic salts. Test group (7) used a hormone-free coculture medium containing 1/10 diluted MS inorganic salts.
The immature embryos prepared in test groups (1) to (7) were each transplanted in a CIMT resting medium (Tingay et al., 1997: Non-Patent Literature 5) containing 0.5 mg/L of 2,4-D, but not containing any selective agents. The resting medium was added with 250 mg/L of carbenicillin and 100 mg/L of cefotaxime for Agrobacterium eradication. The immature embryos were cultured at 25° C. in the dark for 7 days and were each divided into four sections. The divided sections were transplanted in a CIMT resting medium (Tingay et al., 1997: Non-Patent Literature 5) containing 0.2 mg/L of 2,4-D and 5 μM CuSO4, but not containing any selective agent. After the resting culture at 25° C. in the dark for 10 days, each four-divided immature embryo section was further divided into three to six subsections (i.e., one immature embryo was divided into 12 to 24 sections). The divided subsections were placed on a CIMT selection medium (Tingay et al., 1997: Non-Patent Literature 5) containing 0.1 mg/L of 2,4-D, 1.5 μM CuSO4, and 75 mg/L of hygromycin and were cultured at 25° C. in the dark for 10 days. Subsequently, subsections having cell clump supposed to be hygromycin resistance were subcultured in a selection medium having the same composition and were cultured at 25° C. in the dark for 10 days.
One hygromycin resistance callus for each divided section was placed on a transition (regeneration preculture) medium (Harwood et al. (2008: Non-Patent Literature 11)) not containing hygromycin and was cultured at 25° C. in the dark for about 2 weeks.

O=C(O)COc1ccc(Cl)cc1Cl [2,4-D, 2,4-dichlorophenoxyacetic acid]
gene introduction efficiency relative to hormone-free coculture medium ([1]; Example 5, FIG. 3, 1.13 μM in 1/10 diluted MS coculture medium): about one-sixth that of the hormone-free coculture medium
gene introduction efficiency (GUS expression index) ([1]; Example 5, FIG. 3, 11.3 μM in 1/10 diluted MS coculture medium): lowest
callus formation from cocultured immature embryos (barley immature embryos [2]): almost no callus was formed

O=C(O)c1cc(I)cc(I)c1I [TIBA, 2,3,5-triiodobenzoic acid]
frequency of hygromycin resistance callus formation from immature embryos (barley immature embryos [3]; with centrifugation treatment after coculture, after secondary selection): 80%
frequency of hygromycin resistance callus formation from immature embryos (barley immature embryos [3]; without centrifugation treatment): no callus survived in the selection medium
gene introduction efficiency (GUS expression index) ([1]; Example 1, FIG. 1, 5 μM in 1/10 diluted MS coculture medium, coculture 24 hours, versus plant growth regulator-free group): notably enhanced
transformation efficiency per immature embryo (barley immature embryos [4]; test group 4: 5 μM TIBA, 1/10 diluted MS coculture medium, 24 hours, no centrifugation treatment): no transformant was obtained at all
transformation efficiency per immature embryo (barley immature embryos [4]; test group 5: 5 μM TIBA, 1/10 diluted MS coculture medium, centrifugation treatment before inoculation with Agrobacterium): 90%
transformation efficiency per immature embryo (barley immature embryos [4]; test group 6: 5 μM TIBA, 1/10 diluted MS coculture medium, centrifugation treatment after coculture): 100%

COc1c(Cl)ccc(Cl)c1C(=O)O [dicamba, 3,6-dichloro-2-methoxybenzoic acid]
gene introduction efficiency (GUS expression index) ([1]; Example 1, FIG. 1, 11.3 μM in 1/10 diluted MS coculture medium, coculture 24 hours): lowest
transformation efficiency per immature embryo (barley immature embryos [4]; test group 1: conventional coculture medium with dicamba, undiluted MS, coculture 3 days, without centrifugation treatment): 30%
transformation efficiency per immature embryo (barley immature embryos [4]; test group 2: conventional coculture medium with dicamba, undiluted MS, centrifugation treatment before inoculation): no transformant was obtained at all
transformation efficiency per immature embryo (barley immature embryos [4]; test group 3: conventional coculture medium with dicamba, undiluted MS, centrifugation treatment after coculture): 20%
